Measurements published in the supplement of paper PMC10307832.

Tests used:
Assay in all cases: relative viability (nuclei count vs DMSO), 5 days (fraction); higher = more cells survive
[1] = tested on: NCI-H2009
Method in brief: (§1)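 Relative viability is defined as nuclei in treated wells over nuclei in vehicle wells. Duplicate plates were run and medians reported. Lung cancer cell lines in 1536-well plates were dosed by pin tool one day after seeding, with one drug or with a fixed anchor-drug dose plus five library-drug doses (not always all listed) in √10 steps, and nuclei were counted after 5 days.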

[2] = tested on: HCC-44
Method in brief: as §1

[3] = tested on: NCI-H1944
Method in brief: as §1

[4] = tested on: NCI-H2023
Method in brief: as §1

[5] = tested on: HCC-827
Method in brief: as §1

[6] = tested on: NCI-H2228
Method in brief: as §1

[7] = tested on: HCC-366
Method in brief: as §1

[8] = tested on: COR-L23
Method in brief: as §1

[9] = tested on: SW 1573
Method in brief: as §1

[10] = tested on: ABC-1
Method in brief: as §1

[11] = tested on: NCI-H2085
Method in brief: as §1

[12] = tested on: LCLC-103H
Method in brief: as §1

[13] = tested on: NCI-H3122
Method in brief: as §1

[14] = tested on: PC-14
Method in brief: as §1

[15] = tested on: NCI-H2347
Method in brief: as §1

[16] = tested on: NCI-H1355
Method in brief: as §1

[17] = tested on: NCI-H1793
Method in brief: as §1

[18] = tested on: NCI-H2405
Method in brief: as §1

[19] = tested on: HCC-15
Method in brief: as §1

[20] = tested on: EPLC-272H
Method in brief: as §1

[21] = tested on: NCI-H1734
Method in brief: as §1

Cc1cn(-c2cc(NC(=O)c3ccc(C)c(Nc4nccc(-c5cccnc5)n4)c3)cc(C(F)(F)F)c2)cn1 [Nilotinib] + C[C@]1(O)C[C@@H](c2nc(-c3ccc4ccc(-c5ccccc5)nc4c3)c3c(N)nccn32)C1 [Linsitinib] (partner 1 µM) was tested. Which relative viability ([1]; first compound 0.001 µM) did it give?
Its relative viability is 1.07.

And the relative viability ([1]; first compound 0.003162 µM)?
Its relative viability is 1.28.

And the relative viability ([1]; first compound 0.01 µM)?
Its relative viability is 1.22.

What about the relative viability ([1]; first compound 0.03162 µM) of the same compound?
Its relative viability is 1.18.

What about the relative viability ([1]; first compound 0.1 µM) of the same compound?
The relative viability was 1.15.

What about the relative viability ([2]; first compound 0.001 µM) of the same compound?
Its relative viability is 0.624.

And the relative viability ([2]; first compound 0.003162 µM)?
Its relative viability is 0.768.

What about the relative viability ([2]; first compound 0.01 µM) of the same compound?
The relative viability was 0.821.

And the relative viability ([2]; first compound 0.03162 µM)?
Its relative viability is 0.615.

And the relative viability ([2]; first compound 0.1 µM)?
The relative viability was 0.739.

And the relative viability ([3]; first compound 0.001 µM)?
Its relative viability is 1.08.

And the relative viability ([3]; first compound 0.003162 µM)?
The relative viability was 1.41.

And the relative viability ([3]; first compound 0.01 µM)?
Its relative viability is 1.5.

And the relative viability ([3]; first compound 0.03162 µM)?
Its relative viability is 1.33.

And the relative viability ([3]; first compound 0.1 µM)?
Its relative viability is 1.36.

And the relative viability ([4]; first compound 0.001 µM)?
Its relative viability is 0.74.

And the relative viability ([4]; first compound 0.003162 µM)?
Its relative viability is 0.735.

What about the relative viability ([4]; first compound 0.01 µM) of the same compound?
The relative viability was 0.798.

What about the relative viability ([4]; first compound 0.03162 µM) of the same compound?
The relative viability was 0.666.

And the relative viability ([4]; first compound 0.1 µM)?
Its relative viability is 0.525.

What about the relative viability ([5]; first compound 0.001 µM) of the same compound?
Its relative viability is 0.944.

And the relative viability ([5]; first compound 0.003162 µM)?
The relative viability was 1.08.

And the relative viability ([5]; first compound 0.01 µM)?
The relative viability was 1.08.

And the relative viability ([5]; first compound 0.1 µM)?
The relative viability was 0.941.

What about the relative viability ([6]; first compound 0.001 µM) of the same compound?
The relative viability was 0.578.

And the relative viability ([6]; first compound 0.003162 µM)?
Its relative viability is 0.862.

What about the relative viability ([6]; first compound 0.01 µM) of the same compound?
The relative viability was 0.603.

And the relative viability ([6]; first compound 0.03162 µM)?
The relative viability was 0.657.

And the relative viability ([6]; first compound 0.1 µM)?
Its relative viability is 0.623.

And the relative viability ([7]; first compound 0.001 µM)?
The relative viability was 0.577.

What about the relative viability ([7]; first compound 0.003162 µM) of the same compound?
Its relative viability is 1.33.

And the relative viability ([7]; first compound 0.01 µM)?
The relative viability was 0.857.

And the relative viability ([7]; first compound 0.03162 µM)?
The relative viability was 0.64.

What about the relative viability ([7]; first compound 0.1 µM) of the same compound?
Its relative viability is 0.472.

And the relative viability ([8]; first compound 0.001 µM)?
The relative viability was 0.777.

And the relative viability ([8]; first compound 0.003162 µM)?
The relative viability was 1.18.

What about the relative viability ([8]; first compound 0.01 µM) of the same compound?
Its relative viability is 1.24.

And the relative viability ([8]; first compound 0.03162 µM)?
Its relative viability is 0.781.

What about the relative viability ([8]; first compound 0.1 µM) of the same compound?
The relative viability was 0.903.

And the relative viability ([9]; first compound 0.001 µM)?
Its relative viability is 0.939.

What about the relative viability ([9]; first compound 0.003162 µM) of the same compound?
The relative viability was 0.935.

And the relative viability ([9]; first compound 0.01 µM)?
The relative viability was 0.73.

What about the relative viability ([9]; first compound 0.03162 µM) of the same compound?
The relative viability was 0.756.

And the relative viability ([9]; first compound 0.1 µM)?
Its relative viability is 0.841.

What about the relative viability ([10]; first compound 0.001 µM) of the same compound?
The relative viability was 0.985.

What about the relative viability ([10]; first compound 0.003162 µM) of the same compound?
Its relative viability is 0.862.

What about the relative viability ([10]; first compound 0.01 µM) of the same compound?
Its relative viability is 0.724.

And the relative viability ([10]; first compound 0.03162 µM)?
Its relative viability is 0.683.

What about the relative viability ([10]; first compound 0.1 µM) of the same compound?
Its relative viability is 0.554.

And the relative viability ([11]; first compound 0.001 µM)?
Its relative viability is 0.864.

And the relative viability ([11]; first compound 0.003162 µM)?
Its relative viability is 1.08.

What about the relative viability ([11]; first compound 0.01 µM) of the same compound?
The relative viability was 1.15.

What about the relative viability ([11]; first compound 0.03162 µM) of the same compound?
Its relative viability is 0.888.

And the relative viability ([11]; first compound 0.1 µM)?
Its relative viability is 0.884.

And the relative viability ([12]; first compound 0.001 µM)?
The relative viability was 1.19.

And the relative viability ([12]; first compound 0.003162 µM)?
The relative viability was 1.17.

What about the relative viability ([12]; first compound 0.03162 µM) of the same compound?
The relative viability was 0.783.

What about the relative viability ([12]; first compound 0.1 µM) of the same compound?
The relative viability was 1.17.

And the relative viability ([13]; first compound 0.001 µM)?
Its relative viability is 1.16.

And the relative viability ([13]; first compound 0.003162 µM)?
The relative viability was 1.11.

What about the relative viability ([13]; first compound 0.01 µM) of the same compound?
The relative viability was 1.16.

What about the relative viability ([13]; first compound 0.03162 µM) of the same compound?
Its relative viability is 0.894.

What about the relative viability ([13]; first compound 0.1 µM) of the same compound?
Its relative viability is 0.833.

And the relative viability ([14]; first compound 0.001 µM)?
The relative viability was 0.883.

And the relative viability ([14]; first compound 0.003162 µM)?
Its relative viability is 1.05.

What about the relative viability ([14]; first compound 0.01 µM) of the same compound?
The relative viability was 1.07.

What about the relative viability ([14]; first compound 0.03162 µM) of the same compound?
The relative viability was 0.898.

What about the relative viability ([14]; first compound 0.1 µM) of the same compound?
Its relative viability is 1.01.

What about the relative viability ([15]; first compound 0.001 µM) of the same compound?
Its relative viability is 1.01.

And the relative viability ([15]; first compound 0.003162 µM)?
The relative viability was 1.11.

What about the relative viability ([15]; first compound 0.01 µM) of the same compound?
Its relative viability is 1.1.

And the relative viability ([15]; first compound 0.03162 µM)?
Its relative viability is 0.903.

And the relative viability ([15]; first compound 0.1 µM)?
The relative viability was 0.909.

What about the relative viability ([16]; first compound 0.001 µM) of the same compound?
Its relative viability is 0.815.

And the relative viability ([16]; first compound 0.003162 µM)?
Its relative viability is 1.11.

And the relative viability ([16]; first compound 0.01 µM)?
The relative viability was 1.16.

And the relative viability ([16]; first compound 0.03162 µM)?
The relative viability was 0.836.

And the relative viability ([16]; first compound 0.1 µM)?
The relative viability was 0.934.

What about the relative viability ([17]; first compound 0.003162 µM) of the same compound?
The relative viability was 1.09.

And the relative viability ([17]; first compound 0.01 µM)?
The relative viability was 1.41.

And the relative viability ([17]; first compound 0.03162 µM)?
The relative viability was 0.734.

What about the relative viability ([17]; first compound 0.1 µM) of the same compound?
Its relative viability is 0.443.

And the relative viability ([18]; first compound 0.001 µM)?
Its relative viability is 0.976.

And the relative viability ([18]; first compound 0.003162 µM)?
The relative viability was 0.916.

What about the relative viability ([18]; first compound 0.01 µM) of the same compound?
Its relative viability is 0.838.

What about the relative viability ([18]; first compound 0.03162 µM) of the same compound?
Its relative viability is 0.789.

What about the relative viability ([18]; first compound 0.1 µM) of the same compound?
The relative viability was 0.74.

And the relative viability ([19]; first compound 0.001 µM)?
Its relative viability is 0.874.

And the relative viability ([19]; first compound 0.003162 µM)?
Its relative viability is 1.01.

And the relative viability ([19]; first compound 0.01 µM)?
The relative viability was 0.987.

What about the relative viability ([19]; first compound 0.03162 µM) of the same compound?
The relative viability was 0.743.

What about the relative viability ([19]; first compound 0.1 µM) of the same compound?
Its relative viability is 0.744.

What about the relative viability ([20]; first compound 0.001 µM) of the same compound?
The relative viability was 1.38.

And the relative viability ([20]; first compound 0.003162 µM)?
The relative viability was 1.34.

And the relative viability ([20]; first compound 0.01 µM)?
The relative viability was 1.42.

What about the relative viability ([20]; first compound 0.03162 µM) of the same compound?
Its relative viability is 1.08.

What about the relative viability ([20]; first compound 0.1 µM) of the same compound?
Its relative viability is 1.18.

And the relative viability ([21]; first compound 0.001 µM)?
The relative viability was 0.882.

What about the relative viability ([21]; first compound 0.003162 µM) of the same compound?
The relative viability was 0.977.

And the relative viability ([21]; first compound 0.01 µM)?
The relative viability was 0.972.

And the relative viability ([21]; first compound 0.03162 µM)?
The relative viability was 0.669.

And the relative viability ([21]; first compound 0.1 µM)?
Its relative viability is 0.561.
